Values joined by “and” are separate entries in the source; they are usually repeats but may differ in a detail not shown here. Equal values may be shown once. Read-outs that look alike come from different tables or passages of the source.
Tests used:
IMR-90 = test: cell-proliferation assay (BrdU, CTG), IMR-90 normal fibroblast; assay type: cell-based; conditions: IMR-90, (normal) human fetal lung fibroblast, 168 hours
Protocol: Compound 1 was evaluated in in vitro cell-proliferation assays (BrdU assay, MTS assay, or Cell Titer Glo (CTG) assay) in multiple cancer cell lines and patient-derived organoid models to determine half-maximal inhibitory concentrations (IC50s).
Viability and BrdU thymidine incorporation assays were performed in multiwell plates seeded with cells in growth medium. After seeding, multiwell plates were cultured for 24 hours in a humidified incubator at 37° C. to promote adherence. […] The cultures were incubated for 168 hours after which the number of viable cells or the amount of thymidine incorporation in each test well was assessed by the methods as indicated above. Readouts were performed using an EnVision® Multilabel Reader (PerkinElmer, Waltham, MA) and the results were expressed as a percent of the negative control. Percent of Control values were plotted against the corresponding Compound 1 concentration and the relative IC50 value was determined from a non-linear regression curve as the concentration where inhibition was half-maximal. For cell lines where the number of IC50 determinations exceeded one, the IC50 was expressed as the mean IC50±SD.
Half-maximal inhibitory concentration (IC50) values for Compound 1 inhibition of cell proliferation were determined for nine cancer cell lines and one normal human fibroblastcell line.

[1] = tested on: SU103 patient-derived colon cancer organoid model; test: organoid colony formation assay, SU103; assay type: cell-based, human
Protocol: (§1) The IC50 values for Compound 1 inhibition of colony formation and viability were determined for the patient-derived colon cancer organoid models: SU60, T002C, SU62, SU34, SU103, T03SC, and SU106, patient-derived pancreatic cancer organoid models PA016SF, PA0143F, T016P, and T028P, and a patient-derived breast cancer organoid model FS5S3.
(§2) Colony formation and viability assays were performed in multiwell plates seeded with organoids using an in vitro culture system composed of a Matrigel layer, media containing a defined set of growth factors, and co-culture with Wnt3 A-secreting mouse embryonic fibroblasts. Assays were initiated by adding either DMSO as a negative control, or an inhibitor panobinostatat 100×IC50 concentration as a positive control, or serially diluted Compound 1. The cultures were incubated for 168 or 144 hours after which the number of viable organoids in each test well was assessed respectively using one of two detection methods: CTG or staining with calcein-AM followed by imaging and colony counting. Colony count or viability of cells treated with compound 1 was expressed as a percent of the negative control. Aggregated Percent of Control values were plotted against the corresponding Compound 1 concentration and the absolute IC50 value was determined from a non-linear regression curve as the concentration where inhibition was 50% of the control.

[2] = tested on: PA0165F patient-derived pancreatic cancer organoid model; test: organoid colony formation and viability assay, PA0165F; assay type: cell-based, human
Protocol: as §1, §2

[3] = tested on: colorectal cancer organoid PDX models; test: culture-based viability inhibition assay, colorectal cancer organoid PDX models; assay type: cell-based; conditions: for Sensitive to Compound 1 (models sensitive/tested): sensitive = IC50<1 μM
Protocol: A panel of 13 colorectal cancer PDX models and 6 colorectal cancer organoid PDX models were tested for their sensitivity to Compound 1 in culture-based viability inhibition assays. The MSI-H status of the studied colorectal cancer cell lines and their respective mutations of the MMR path genes are shown in FIG. 19.

[4] = tested on: erythroid hematopoietic progenitor cells derived from human bone marrow; test: erythroid colony formation of hematopoietic progenitor cells; assay type: cell-based
Protocol: (§3) Compound 1 was evaluated for its effects on proliferation of erythroid and myeloid hematopoietic progenitor cells derived from human bone marrow at […] Technologies Inc. (Vancouver, BC, Canada).
(§4) Cells were thawed rapidly at 37° C. into DNAse I and then diluted in 10 mL of Iscove's Modified Dulbecco's medium containing 2% fetal bovine serum (IMDM+2% FBS) and washed by centrifugation (1200 rpm for 10 minutes at room temperature). The supernatant was discarded and the cell pellet resuspended in a known volume of IMDM+2% FBS. A nucleated cell count (3% glacial acetic acid) and viability assessment (trypan blue exclusive test) were performed.
(§5) Compound 1 and positive control (panobinostat) were diluted in DMSO and tested at concentrations ranging from 0.002 μM to 5 μM in final media. These dilutions provided the appropriate final test concentrations required for the test and control articles ([…], and 0.002 μM).
(§6) Test and control articles were incubated with human bone marrow hematopoietic progenitor cells. After 14 days, cell colonies were assessed.
(§7) To calculate the concentration of 50% and 90% inhibition of colony growth (IC50 and IC90) for each test article, a dose response curve was generated plotting the log of the test article concentration versus the percentage of control colony growth using GraphPad Prism. […] The IC50 and IC90 values for both test and control articles were derived from an interpolation of the curve fit. In cases where the IC50/90 value reported by GraphPad Prism is a value beyond the range of concentrations that were actually tested, if this value is more than 4 times the highest concentration tested, or where GraphPad Prism cannot calculate an IC50/90 value, notations of >5 μM (for test article compound 1) are used.

[5] = tested on: myeloid hematopoietic progenitor cells derived from human bone marrow; test: myeloid colony formation of hematopoietic progenitor cells; assay type: cell-based
Protocol: as §3, §4, §5, §6, §7

H3K36me3 = test: dose-dependent inhibition of histone demethylase, H3K36me3 immunoblot; assay type: cell-based; conditions: FIG. 6
Protocol: FIG. 6 illustrates the dose-dependent inhibition of histone demethylase by Compound 1. Left Panel: Representative immunoblot showing change in staining intensity for actin (red bands) and H3K36me3 (green bands) in response to Compound 1 at various concentrations. Right Panel: Normalized ratio of band intensities for H3K36me3 and actin versus the concentration of Compound 1 (μM). (mean IC50±SD value−0.085±0.004 μM).

KDM4 = test: inhibition of H3K9me3 demethylation, TR-FRET LANCE detection; assay type: biochemical; conditions: in the presence of α-KG
Protocol: Inhibition of […] demethylation was measured at various Compound 1 concentrations in the presence of α-KG using time-resolved fluorescence-based (TR-FRET) LANCE® detection.

human cancer cell lines = test: apoptosis in human cancer cell lines; assay type: cell-based
[6] = MSS (Organoid) colorectal cancer models
[7] = 336 h, human bone marrow progenitor cells, colony growth after 14 days
[8] = progenitor cells from normal human bone marrow, p>0.01

`CC(C)c1ccc(N(C)c2ccc3c(c2)OCC[C@H]3CNc2cnccc2C(=O)O)cc1` [Compound 1, 3-({[(4R)-7-{methyl[4-(propan-2-yl)phenyl]amino}-3,4-dihydro-2H-1-benzopyran-4-yl]methyl}amino)pyridine-4-carboxylic acid] was tested, and the IC50 (IMR-90) was greater than 1 µM, the IC50 ([1]; Homo sapiens, SU103 colorectal carcinoma model) was greater than 10 µM and the IC50 ([1]; SU103 human colorectal carcinoma organoid, 144 hrs, Colony Counts) was greater than 10 µM. For the same molecule, the IC50 ([2]; Homo sapiens, PA0165F pancreatic carcinoma model) was less than 0.03 µM, the IC50 ([2]; PA0165F human pancreatic carcinoma organoid, 144 hrs, Colony Counts) was 0.016 µM and the IC50 ([2]; PA0165F human pancreatic carcinoma organoid, 168 hrs, CTG) was 0.029 µM. For the same molecule, the IC50 ([3]; MSI (Organoid) colorectal cancer models, read-out: IC50 (range over sensitive models)) was 0.022 to 0.149 µM, the “Sensitive to Compound 1 (models sensitive/tested)” value ([3]; MSI (Organoid) colorectal cancer models) was 3 out of 3 and 3/3 and the “Sensitive to Compound 1 (percent of models)” value [3, 6] was “(0%)”. The IC50 ([3]; MSS (Organoid) colorectal cancer models, read-out: IC50) was greater than 10 µM, the “Sensitive to Compound 1 (models sensitive/tested)” value [3, 6] was 0 out of 3 and 0/3 and the IC50 ([4]; 336 h, human bone marrow progenitor cells, 14 days, read-out: IC50, inhibition of erythroid colony formation) was greater than 5 µM. The IC90 [4, 7] was greater than 5 mg/L, the IC50 ([4]; 336 h, human bone marrow progenitor cells, colony growth after 14 days, read-out: Erythroid IC50) was greater than 5 mg/L and the “concentrations at which colony morphology (size and density) was slightly compromised” value ([4]; erythroid derived colonies) was no less than 1.67 μM. For the same molecule, the “effect on colony formation compared to 0.1% DMSO” value [4, 8] was “no significant effect”, the IC50 ([5]; 336 h, human bone marrow progenitor cells, 14 days, read-out: IC50, inhibition of myeloid colony formation) was greater than 5 µM and the IC90 [5, 7] was greater than 5 mg/L. The IC50 ([5]; 336 h, human bone marrow progenitor cells, colony growth after 14 days, read-out: Myeloid IC50) was greater than 5 mg/L, the “concentrations at which colony morphology (size and density) was slightly compromised” value ([5]; myeloid derived colonies) was no less than 1.67 μM and the “effect on colony formation compared to 0.1% DMSO” value [5, 8] was “no significant effect”. For the same molecule, the “mean IC50±SD, H3K36me3/actin band intensity ratio” value (H3K36me3) was 0.085 ± 0.004 µM, the “mode of inhibition of H3K9me3 demethylation” value (KDM4) was “reversible and competitive inhibition” and the effect on apoptosis (human cancer cell lines) was “induces apoptosis”.

— US20250025451A1, “TREATMENT OF CANCER WITH KDM4 INHIBITORS” (Celgene Corporation, priority 2021, published 2025)
